These results are taken from the OPERA property sets (Mansouri et al. 2018).

In general, boiling point refers to the temperature of boiling at a given pressure. For orientation: melting point means the temperature, or range, at which the solid turns liquid.

Settings in the first series: not given
For the molecule `CCOC(=O)CBr`, the boiling point came to 168 °C.

On to `CCCC(C)(O)CC(C)C` (stereo not given), for which the boiling point turned out to be 171 °C.

In the case of `CC1CCC(C)CC1` (stereo not given), the boiling point was 120 °C, the log10 vapour pressure (mmHg) is 1.25 and the melting point was -87 °C.

`O=C(CCl)C(Cl)(Cl)Cl`: the boiling point was found to be 183 °C and the melting point was found to be 65 °C.

Molecule `O=C1Cc2ccccc2N1` yielded a melting point of 128 °C.

Take `c1ccc(-c2cccnc2)cc1`: the boiling point worked out at 272 °C and the melting point stood at 164 °C.

For `O=c1[nH]cc(N(CCCl)CCCl)c(=O)[nH]1`, the log10 Koc (L/kg) amounted to 1.46.

Turning to `CCc1cccs1`, the boiling point worked out at 134 °C and the log10 vapour pressure (mmHg) turned out to be 1.05.

The molecule `CC1=C(C)CCCC1` displayed a boiling point of 138 °C and a melting point of -84.1 °C.

`Oc1cc(F)cc(F)c1F`: the melting point turned out to be 29 °C.

As for `Nc1ccc(S(N)(=O)=O)cc1`, the ready biodegradability entry was “not readily biodegradable”.

On to `O=C(O)CCC(=O)OOC(=O)CCC(=O)O`, for which the melting point amounted to 127 °C.

Consider `O=CC12CC=CCC1C1CC=CCC1O2` (stereo not given), for which the boiling point was determined as 307 °C and the melting point was -80 °C.

On to `Oc1ccc(Br)c(O)c1`, for which the melting point is 103 °C.

`CCN(C(C)=O)C(C)=O`: the boiling point was 197 °C.

`CC1C2Cc3ccc(O)cc3C1(C)CCN2CCc1ccccc1` (stereo not given) gave a melting point of 181 °C.

In the case of `Cc1ccc2ccc(C)nc2c1`, the boiling point was determined as 264 °C and the melting point was found to be 61 °C.

`Cc1cc(C)c(Br)c(C)c1Br` showed a boiling point of 285 °C and a melting point of 65.5 °C.

As to `CN1C(=O)CCC1=O`, the boiling point came to 234 °C and the melting point came out at 71 °C.

`CCCCC(Cl)CC` (stereo not given) yielded a boiling point of 144 °C.

For the molecule `CC(=O)C=CC=Cc1ccccc1`, the melting point came to 68 °C.

In turn, `COCCCCl` registered a boiling point of 111 °C.

For the molecule `COC(=O)CCCCCC(=O)OC`, the melting point is -21 °C.

In turn, `CCOC(=O)C(C(=O)OCC)=C(C(=O)OCC)C(=O)OCC` returned a melting point of 58 °C.

For the molecule `O=C(NCO)NS(=O)(=O)c1ccc(NC(=O)c2ccccc2C(=O)O)cc1`, the melting point worked out at 162 °C.

For the molecule `CC1(C)O[C@@H]2C[C@H]3[C@@H]4C[C@H](F)C5=CC(=O)C=C[C@]5(C)[C@@]4(F)[C@@H](O)C[C@]3(C)[C@]2(C(=O)CO)O1`, the melting point worked out at 266 °C.

With `O=C1c2ccccc2C(=O)C1(CN1CCOCC1)c1ccccc1`, the melting point was found to be 88 °C.

`Cc1ccc(C(=O)NN)cc1` had a melting point of 117 °C.

`CC(C)CCS`: the boiling point came out at 120 °C and the log10 vapour pressure (mmHg) was found to be 1.31.

In turn, `O=[N+]([O-])c1ccc2c(c1)NCC2` gave a melting point of 68 °C.

In turn, `O=NN(CCCl)C(=O)NCCCl` showed a melting point of 31 °C.

With `CC(=O)c1ccc(C)nc1`, the melting point came to 17.6 °C.

Molecule `SCCCS` yielded a boiling point of 173 °C and a melting point of -79 °C.

`FCCCBr` had a boiling point of 101 °C.

Molecule `O=P(O)(O)CCCl` showed a log10 Koc (L/kg) of 0, a log10 vapour pressure (mmHg) of -7.01 and a melting point of 74.2 °C.

In turn, `C1CNC1` displayed a boiling point of 63 °C and a log10 vapour pressure (mmHg) of 2.25.

`Cc1ccc(-c2cc(C(F)(F)F)nn2-c2ccc(S(N)(=O)=O)cc2)cc1` came in with a melting point of 158 °C.

Regarding `O=c1[nH]sc2ccccc12`, the ready biodegradability result is “not readily biodegradable”.

Consider `Cc1ccc(OP(=O)(Oc2ccc(C)c(C)c2)Oc2ccc(C)c(C)c2)cc1C`, for which the melting point worked out at 72 °C.

`Nc1ccc(Cl)cc1`: the boiling point worked out at 232 °C, the log10 Koc (L/kg) is 1.96, the log10 vapour pressure (mmHg) is -1.57 and the melting point came out at 72.5 °C. The ready biodegradability entry is “not readily biodegradable”.

Take `CCNc1nc(Cl)nc(NCC)n1`: the log10 Koc (L/kg) worked out at 2.1, the log10 vapour pressure (mmHg) is -7.66, the melting point came out at 226 °C and the ready biodegradability result is “not readily biodegradable”.

The molecule `Oc1c(O)c(Br)c(Br)c(Br)c1Br` returned a melting point of 191 °C.

In turn, `CCOC(O)C(F)(F)F` (stereo not given) came in with a boiling point of 104 °C.

`COc1cc2nc(N3CCN(C(=O)C4CCCO4)CC3)nc(N)c2cc1OC` (stereo not given) yielded a melting point of 273 °C.

Molecule `C1=CC=CC=CC=C1` returned a boiling point of 140 °C, a log10 vapour pressure (mmHg) of 0.892 and a melting point of -4.7 °C.

As to `CCN(CC)C(C)=O`, the boiling point worked out at 186 °C and the log10 Koc (L/kg) worked out at 1.84.

Regarding `CCNCCN`, the boiling point was 129 °C.

Take `NCCCN1CCN(CCCN)CC1`: the melting point stood at 15 °C.

`COc1cccc(OC)c1C(=O)O` registered a log10 vapour pressure (mmHg) of -6.72.

As to `CCCCC(CC)CO[Si](OCC(CC)CCCC)(OCC(CC)CCCC)OCC(CC)CCCC` (stereo not given), the boiling point amounted to 419 °C.

For `C=CCc1cc2c(c(OC)c1OC)OCO2`, the boiling point was 285 °C and the melting point turned out to be 29.5 °C.

`C/C=C(\C)C(=O)O` returned a boiling point of 198 °C, a log10 vapour pressure (mmHg) of -0.875 and a melting point of 64.5 °C.

Molecule `O/N=C\c1ccccc1` gave a boiling point of 200 °C and a melting point of 36.5 °C.

Staying with this series, now noted: fish.
For the molecule `N=C(Nc1ccccc1)Nc1ccccc1`, the log10 BCF was found to be 1.3.

For the molecule `CCCCCC[Si](O)(CCCCCC)CCCCCC`, the log10 BCF came to 2.7 and the log10 biotransformation half-life (days) was 0.04.

Consider `C=C(C)CCCCCCCCC`, for which the log10 biotransformation half-life (days) was determined as 0.17.

The molecule `Nc1ccc(Cl)cc1` showed a log10 BCF of 0.84 and a log10 biotransformation half-life (days) of -0.61.

Turning to `CCNc1nc(Cl)nc(NCC)n1`, the log10 BCF is 0.56 and the log10 biotransformation half-life (days) is -0.94.
